# Assay results published in patent US6737383B1, “Herbicidal oxadiazolidines” (priority 1999, dated 2004).
# What was measured:
# soybean = test: Test B pre/postemergence soybean; type: in vivo, Glycine max
# Summary of the method: (§1)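 Herbicidal effect was estimated by eye on a ten-point control scale after plants spent twelve to sixteen days in a greenhouse following soil or foliar treatment. Foliar sprays targeted plants at one to four leaves; all doses were formulated in a non-phytotoxic solvent with surfactant.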
# wheat = test: Test B pre/postemergence wheat; type: in vivo, Triticum aestivum
# Summary of the method: as §1
# wild oat = test: Test B pre/postemergence wild oat; type: in vivo, Avena fatua
# Summary of the method: as §1
# smallflower flatsedge = test: Test B flood test smallflower flatsedge; type: in vivo, Cyperus difformis
# Summary of the method: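 Read-out is a visual response score from 0 (no effect) to 10 (complete control), assigned by comparison with untreated controls. Treatment was applied at the 2-leaf stage, and plants stayed in the greenhouse for twelve to sixteen days before scoring.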
# crabgrass = test: Test B pre/postemergence crabgrass; type: in vivo, Digitaria sanguinalis
# Summary of the method: as §1
# [1] = Preemergence, Rate 62 g/ha, scale of 0 to 10 where 0 is no effect and 10 is complete control
# [2] = Preemergence, Rate 125 g/ha, 0 is no effect, 10 is complete control
# [3] = Preemergence, Rate 250 g/ha, scale 0 to 10, 0 is no effect, 10 is complete control
# [4] = Preemergence, Rate 500 g/ha, scale of 0 to 10 where 0 is no effect and 10 is complete control
# [5] = Rate 62 g/ha, Postemergence, scale of 0 to 10 where 0 is no effect and 10 is complete control
# [6] = Rate 125 g/ha, Postemergence, scale 0 to 10
# [7] = Rate 500 g/ha, Postemergence, scale 0 to 10
# [8] = Rate 62 g/ha, headed Pre-emergence (flood test species), scale 0 to 10 (0 no effect, 10 complete control)
# [9] = Rate 125 g/ha, Pre-emergence, flood test species, scale 0 to 10 where 0 is no effect and 10 is complete control
# [10] = Rate 250 g/ha, Pre-emergence, flood-test species, scale 0 to 10, 0 is no effect, 10 is complete control
# [11] = Rate 500 g/ha, Pre-emergence, flood test species, scale 0 to 10 (0 no effect, 10 complete control)
# [12] = Postemergence, Rate 125 g/ha, scale 0 to 10, 0 is no effect, 10 is complete control
# [13] = Preemergence, Rate 62 g/ha, scale 0 to 10 (0 no effect, 10 complete control)
# [14] = Preemergence, Rate 250 g/ha, scale of 0 to 10 where 0 is no effect and 10 is complete control
# [15] = Rate 500 g/ha, Postemergence, scale 0 to 10, 0 no effect, 10 complete control
# [16] = Postemergence, Rate 62 g/ha, scale 0 to 10, 0 is no effect, 10 is complete control
# [17] = Postemergence, Rate 125 g/ha, scale of 0 to 10 where 0 is no effect and 10 is complete control
# [18] = Preemergence, Rate 125 g/ha, scale of 0 to 10 where 0 is no effect and 10 is complete control
# [19] = Preemergence, Rate 250 g/ha, scale 0 to 10 (0 no effect, 10 complete control)
# [20] = Rate 500 g/ha, Postemergence, scale 0 to 10, 0 is no effect, 10 is complete control
# [21] = Rate 62 g/ha, Postemergence, scale 0 to 10 (0 no effect, 10 complete control)
structure (smiles),measurement,setting,value
CSc1ccc(N(C(=O)n2oc(=O)n(-c3ccccc3C)c2=O)C(C)C)cc1 [Compound 205],Soybean plant response rating,soybean; [1],0
same,Soybean plant response rating (0 to 10 scale),soybean; [2],0
same,Soybean plant response rating,soybean; [3],0
same,"Plant response rating, Soybean",soybean; [4],0
same,Soybean plant response rating,soybean; [5],0
same,Soybean plant response rating,soybean; [6],1
same,"Plant response rating (0 to 10; 0 is no effect, 10 is complete control), Soybean","soybean; Rate 250 g/ha, Postemergence",2
same,Soybean plant response rating,soybean; [7],2
same,Wheat plant response rating,wheat; [1],0
same,Wheat plant response rating,wheat; [3],0
same,"Plant response rating, Wheat",wheat; [4],0
same,Wheat plant response rating,wheat; [5],0
same,Wheat plant response rating,wheat; [6],0
same,"Plant response rating (0 to 10; 0 is no effect, 10 is complete control), Wheat","wheat; Rate 250 g/ha, Postemergence",0
same,Wild oats plant response rating,wild oat; [1],0
same,Wild oats plant response rating,wild oat; [3],0
same,"Plant response rating, Wild oats",wild oat; [4],0
same,Wild oats plant response rating,wild oat; [5],0
same,Wild oats plant response rating,wild oat; [6],0
same,"Plant response rating (0 to 10; 0 is no effect, 10 is complete control), Wild oats","wild oat; Rate 250 g/ha, Postemergence",0
same,S. Flatsedge plant response rating,smallflower flatsedge; [8],0
same,S. Flatsedge plant response rating,smallflower flatsedge; [9],0
same,S. Flatsedge plant response rating,smallflower flatsedge; [10],0
same,S. Flatsedge plant response rating,smallflower flatsedge; [11],0
same,Crabgrass plant response rating,crabgrass; [1],0
same,Crabgrass plant response rating (0 to 10 scale),crabgrass; [2],0
same,Crabgrass plant response rating,crabgrass; [3],1
same,"Plant response rating, Crabgrass",crabgrass; [4],8
same,Crabgrass plant response rating,crabgrass; [5],0
same,Crabgrass plant response rating,crabgrass; [6],0
same,"Plant response rating (0 to 10; 0 is no effect, 10 is complete control), Crabgrass","crabgrass; Rate 250 g/ha, Postemergence",1
same,Crabgrass plant response rating,crabgrass; [7],1
Cc1c(-n2c(=O)on(C(=O)N(c3ccccc3)C(C)C)c2=O)ccc2ccccc12 [Compound 344],"Plant response rating, Soybean",soybean; [12],2
same,"Plant response rating, Soybean",soybean; [13],0
same,Soybean plant response rating (0 to 10 scale),"soybean; Preemergence, Rate 125 g/ha",0
same,Soybean plant response rating,soybean; [14],0
same,Soybean plant response rating,soybean; [4],0
same,Soybean plant response rating,soybean; [5],2
same,"Plant response rating, Soybean",soybean; [15],2
same,"Plant response rating, Wheat",wheat; [12],0
same,"Plant response rating, Wheat",wheat; [13],0
same,Wheat plant response rating (0 to 10 scale),"wheat; Preemergence, Rate 125 g/ha",0
same,Wheat plant response rating,wheat; [14],0
same,Wheat plant response rating,wheat; [4],0
same,Wheat plant response rating,wheat; [5],0
same,"Plant response rating, Wheat",wheat; [15],0
same,"Plant response rating, Wild oats",wild oat; [12],0
same,"Plant response rating, Wild oats",wild oat; [13],0
same,Wild oats plant response rating (0 to 10 scale),"wild oat; Preemergence, Rate 125 g/ha",0
same,Wild oats plant response rating,wild oat; [14],0
same,Wild oats plant response rating,wild oat; [4],0
same,Wild oats plant response rating,wild oat; [5],0
same,"Plant response rating, Wild oats",wild oat; [15],0
same,"Plant response rating, S. Flatsedge","smallflower flatsedge; Postemergence (flood test), Rate 125 g/ha, scale 0 to 10, 0 is no effect, 10 is complete control",0
same,S. Flatsedge plant response rating,"smallflower flatsedge; Rate 62 g/ha, Postemergence (flood test species), scale of 0 to 10 where 0 is no effect and 10 is complete control",0
same,"Plant response rating, S. Flatsedge","smallflower flatsedge; Rate 500 g/ha, listed under Postemergence (flood test species), scale 0 to 10, 0 no effect, 10 complete control",0
same,"Plant response rating, Crabgrass",crabgrass; [12],0
same,"Plant response rating, Crabgrass",crabgrass; [13],0
same,Crabgrass plant response rating (0 to 10 scale),"crabgrass; Preemergence, Rate 125 g/ha",0
same,Crabgrass plant response rating,crabgrass; [14],0
same,Crabgrass plant response rating,crabgrass; [4],1
same,Crabgrass plant response rating,crabgrass; [5],0
same,"Plant response rating, Crabgrass",crabgrass; [15],0
C=C(Cc1ccccc1)Cn1c(=O)on(C(=O)N(c2ccccc2)C(C)C)c1=O [Compound 650],"Plant response rating, Soybean",soybean; [16],2
same,Soybean plant response rating,soybean; [17],4
same,Soybean plant response rating,soybean; [1],0
same,Soybean plant response rating,soybean; [18],0
same,"Plant response rating, Soybean",soybean; [19],0
same,"Plant response rating, Soybean",soybean; [4],0
same,Soybean plant response rating,soybean; [20],5
same,"Plant response rating, Wheat",wheat; [16],0
same,Wheat plant response rating,wheat; [17],0
same,Wheat plant response rating,wheat; [1],0
same,Wheat plant response rating,wheat; [18],0
same,"Plant response rating, Wheat",wheat; [19],0
same,"Plant response rating, Wheat",wheat; [4],0
same,Wheat plant response rating,wheat; [20],0
same,"Plant response rating, Wild oats",wild oat; [16],0
same,Wild oats plant response rating,wild oat; [17],0
same,Wild oats plant response rating,wild oat; [1],0
same,Wild oats plant response rating,wild oat; [18],0
same,"Plant response rating, Wild oats",wild oat; [19],0
same,"Plant response rating, Wild oats",wild oat; [4],0
same,Wild oats plant response rating,wild oat; [20],0
same,"Plant response rating, S. Flatsedge (0 to 10 scale, 0 is no effect, 10 is complete control)","smallflower flatsedge; Rate 62 g/ha, flood test species, Pre-emergence, visual evaluation after twelve to sixteen days",0
same,"S. Flatsedge plant response rating (0 to 10 scale, 0 is no effect, 10 is complete control)","smallflower flatsedge; Rate 125 g/ha, under heading Pre-emergence, flood test species, visual evaluation after twelve to sixteen days",0
same,S. Flatsedge plant response rating,"smallflower flatsedge; Rate 250 g/ha, Pre-emergence (flood test species), scale 0 to 10, 0 is no effect, 10 is complete control",0
same,S. Flatsedge plant response rating,"smallflower flatsedge; Rate 500 g/ha, Pre-emergence section of Table B, 0 to 10 scale (0 no effect, 10 complete control)",0
same,"Plant response rating, Crabgrass",crabgrass; [16],0
same,Crabgrass plant response rating,crabgrass; [17],1
same,Crabgrass plant response rating,"crabgrass; Postemergence, Rate 250 g/ha, scale of 0 to 10, 0 is no effect, 10 is complete control",7
same,Crabgrass plant response rating,crabgrass; [1],3
same,Crabgrass plant response rating,crabgrass; [18],8
same,"Plant response rating, Crabgrass",crabgrass; [19],9
same,"Plant response rating, Crabgrass",crabgrass; [4],9
same,Crabgrass plant response rating,crabgrass; [20],9
Cc1c(-n2c(=O)on(C(=O)N(c3ccc(Cl)cc3)C(C)C)c2=O)ccc2ccccc12 [Compound 336],"Plant response rating, Soybean",soybean; [12],1
same,Soybean plant response rating,soybean; [1],0
same,Soybean plant response rating (0 to 10 scale),"soybean; Preemergence, Rate 125 g/ha",0
same,Soybean plant response rating,soybean; [14],0
same,Soybean plant response rating,soybean; [4],0
same,Soybean plant response rating,soybean; [21],1
same,"Plant response rating, Soybean",soybean; [15],2
same,"Plant response rating, Wheat",wheat; [12],0
same,Wheat plant response rating,wheat; [1],0
same,Wheat plant response rating (0 to 10 scale),"wheat; Preemergence, Rate 125 g/ha",0
same,Wheat plant response rating,wheat; [14],0
same,Wheat plant response rating,wheat; [4],0
same,Wheat plant response rating,wheat; [21],0
same,"Plant response rating, Wheat",wheat; [15],0
same,"Plant response rating, Wild oats",wild oat; [12],0
same,Wild oats plant response rating,wild oat; [1],0
same,Wild oats plant response rating (0 to 10 scale),"wild oat; Preemergence, Rate 125 g/ha",0
same,Wild oats plant response rating,wild oat; [14],0
same,Wild oats plant response rating,wild oat; [4],0
same,Wild oats plant response rating,wild oat; [21],0
same,"Plant response rating, Wild oats",wild oat; [15],0
same,S. Flatsedge plant response rating,smallflower flatsedge; [8],0
same,S. Flatsedge plant response rating,smallflower flatsedge; [9],0
same,S. Flatsedge plant response rating,smallflower flatsedge; [10],0
same,S. Flatsedge plant response rating,smallflower flatsedge; [11],0
same,"Plant response rating, Crabgrass",crabgrass; [12],0
same,Crabgrass plant response rating,crabgrass; [1],0
same,Crabgrass plant response rating (0 to 10 scale),"crabgrass; Preemergence, Rate 125 g/ha",0
same,Crabgrass plant response rating,crabgrass; [14],0
same,Crabgrass plant response rating,crabgrass; [4],0
same,Crabgrass plant response rating,crabgrass; [21],0
same,"Plant response rating, Crabgrass",crabgrass; [15],0
